The numbers were not newly measured in patent US20180271919A1, “PROBIOTIC COMPOSITION AT LEAST COMPRISING BIFIDOBACTERIUM BIFIDUM W23 AND CAPABLE OF CONTROLLING INTESTINAL BARRIER FUNCTION” (Winclove Holding B.V., priority 2015, published 2018), which cites them from elsewhere.

This series has as its system patients with schizophrenia. Particulars: patients with schizophrenia prescribed the drug.

Turning to `CN1CCN(C2=Nc3cc(Cl)ccc3Nc3ccccc32)CC1` [clozapine], the “Rate of metabolic syndrome” value is recorded as 52%.
